Patent publication US8178530B2, “Imidazolopyrazine compounds useful for the treatment of degenerative and inflammatory diseases” (Janssen Pharmaceutica NV, priority 2006, dated 2012)

What was measured:
MAPKAPK5 = molecular target: T1, MAPKAPK5 (Homo sapiens, UniProt Q8IW41); assay: MAPKAP-K5 assay (FlashPlate, 33P-ATP); assay type: biochemical; details: 0.6 μM ATP, 30 minutes at room temperature
T1 construct: 1 mU MAPKAP-K5
T1 sequence (Q8IW41 1-473): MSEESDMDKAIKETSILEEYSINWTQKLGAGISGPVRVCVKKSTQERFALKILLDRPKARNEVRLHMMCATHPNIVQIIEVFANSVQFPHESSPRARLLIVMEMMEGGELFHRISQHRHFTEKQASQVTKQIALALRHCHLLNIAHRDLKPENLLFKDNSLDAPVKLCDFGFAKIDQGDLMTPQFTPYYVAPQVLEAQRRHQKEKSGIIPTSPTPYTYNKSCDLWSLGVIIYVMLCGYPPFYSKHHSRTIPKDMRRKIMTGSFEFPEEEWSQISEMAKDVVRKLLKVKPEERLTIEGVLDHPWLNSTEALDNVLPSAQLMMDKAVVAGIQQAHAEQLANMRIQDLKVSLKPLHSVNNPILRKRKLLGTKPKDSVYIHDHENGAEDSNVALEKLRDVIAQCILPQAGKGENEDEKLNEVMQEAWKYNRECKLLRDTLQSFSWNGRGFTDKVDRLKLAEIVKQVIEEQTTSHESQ
Experimental: 3 μM MAPKAP-K5 peptide substrate

MMP1 expression by SFs = assay: 'MMP assay': MMP1 expression by 'complex trigger' activated synovial fibroblasts (MMP1 ELISA); assay type: cell-based, human; details: Homo sapiens, Fibroblast, RASFs, 48 hrs

Structure (SMILES)	IC50 (MAPKAPK5) [nM]	EC50 (MMP1 expression by SFs) [nM]
CN1CCC(COc2ccc(Nc3ncc(-c4ccc(C(N)=O)c(F)c4)n4ccnc34)cc2)CC1 [Compound 159, 2-Fluoro-4-{8-[4-(1-methyl-piperidin-4-ylmethoxy)-phenylamino]-imidazo[1,2-a]pyrazin-5-yl}-benzamide]	> 1000	101 to 500
c1cn2c(-c3cn[nH]c3C3CC3)cnc(Nc3ccc(N4CCOCC4)cc3)c2n1 [Compound 160, [5-(5-Cyclopropyl-1H-pyrazol-4-yl)-imidazo[1,2-a]pyrazin-8-yl]-(4-morpholin-4-yl-phenyl)-amine]	101 to 500	> 1000
c1cn2c(-c3c[nH]cn3)cnc(Nc3ccc(N4CCOCC4)cc3)c2n1 [Compound 163]	> 1000	> 1000
NC(=O)c1c(F)cc(-c2cnc(Nc3ccc(N4CCOCC4)cc3)c3nccn23)cc1F [Compound 165]	> 1000	> 1000
CN(C)Cc1cn(-c2ccc(Nc3ncc(-c4ccc(C(N)=O)cc4)n4ccnc34)cc2)nn1 [Compound 166, 4-{8-[4-(4-Dimethylaminomethyl-[1,2,3]triazol-1-yl)-phenylamino]-imidazo[1,2-a]pyrazin-5-yl}-benzamide]	> 1000	> 1000
NC(=O)c1ccc(-c2cnc(Nc3ccc(-n4ccnc4)cc3)c3nccn23)cc1 [Compound 167]	> 1000	> 1000
c1cn(-c2ccc(Nc3ncc(-c4cn[nH]c4)n4ccnc34)cc2)cn1 [Compound 168, (4-Imidazol-1-yl-phenyl)-[5-(1H-pyrazol-4-yl)-imidazo[1,2-a]pyrazin-8-yl]-amine]	> 1000	> 1000
Cn1nnc(-c2ccc(Nc3ncc(-c4cn[nH]c4)n4ccnc34)cc2)n1 [Compound 169, [4-(2-Methyl-2H-tetrazol-5-yl)-phenyl]-[5-(1H-pyrazol-4-yl)-imidazo[1,2-a]pyrazin-8-yl]-amine]	> 1000	101 to 500
CN1CCN(c2ccc(Nc3ncc(-c4ccc(C(N)=O)cc4)n4ccnc34)cc2F)CC1 [Compound 171, 4-{8-[3-Fluoro-4-(4-methyl-piperazin-1-yl)-phenylamino]-imidazo[1,2-a]pyrazin-5-yl}-benzamide]	> 1000	101 to 500
NC(=O)c1ncc(-c2cnc(Nc3ccc(N4CCOCC4)cc3)c3nccn23)s1 [Compound 173, 5-[8-(4-Morpholin-4-yl-phenylamino)-imidazo[1,2-a]pyrazin-5-yl]-thiazole-2-carboxylic acid amide]	> 1000	> 1000
Cc1[nH]ncc1-c1cnc(Nc2ccc(N3CCOCC3)cc2)c2nccn12 [Compound 176]	501 to 1000	> 1000
C[C@@H]1CN(c2ccc(Nc3ncc(-c4cc(F)c(C(N)=O)c(F)c4)n4ccnc34)cc2)[C@@H](C)CN1C [Compound 181]	101 to 500	> 1000
C[C@@H]1CN(c2ccc(Nc3ncc(-c4csc(C(N)=O)c4)n4ccnc34)cc2)[C@@H](C)CN1C [Compound 186]	101 to 500	501 to 1000
C[C@@H]1CN(c2ccc(Nc3ncc(-c4cc(C(N)=O)co4)n4ccnc34)cc2)[C@@H](C)CN1C [Compound 187]	1 to 100	101 to 500
Cc1oc(-c2cnc(Nc3ccc(N4CCOCC4)cc3)c3nccn23)cc1C(N)=O [Compound 188]	> 1000	501 to 1000
CC(C)N1CCN(c2ccc(Nc3ncc(-c4cc(F)c(C(N)=O)c(F)c4)n4ccnc34)cc2)CC1 [Compound 193]	501 to 1000	501 to 1000
O=C1NCc2cc(-c3cnc(Nc4cccnc4)c4nccn34)ccc21 [Compound 197]	101 to 500	501 to 1000
O=C1NCc2cc(-c3cnc(Nc4ccc(N5CCOCC5)cc4)c4nccn34)sc21 [Compound 198, 2-[8-(4-Morpholin-4-yl-phenylamino)-imidazo[1,2-a]pyrazin-5-yl]-4,5-dihydro-thieno[2,3-c]pyrrol-6-one]	101 to 500	101 to 500
CC(C)N1CCN(c2ccc(Nc3ncc(-c4coc(C(N)=O)c4)n4ccnc34)cc2)CC1 [Compound 204, 4-{8-[4-(4-Isopropyl-piperazin-1-yl)-phenylamino]-imidazo[1,2-a]pyrazin-5-yl}-furan-2-carboxylic acid amide]	101 to 500	501 to 1000
CC(C)N1CCN(c2ccc(Nc3ncc(-c4ccc5c(c4)CNC5=O)n4ccnc34)cc2)CC1 [Compound 205, 5-{8-[4-(4-Isopropyl-piperazin-1-yl)-phenylamino]-imidazo[1,2-a]pyrazin-5-yl}-2,3-dihydro-isoindol-1-one]	1 to 100	> 1000
CC(C)N1CCN(c2ccc(Nc3ncc(-c4ccc5c(c4)CNC5=O)n4ccnc34)cn2)CC1 [Compound 210, 5-{8-[6-(4-Isopropyl-piperazin-1-yl)-pyridin-3-ylamino]-imidazo[1,2-a]pyrazin-5-yl}-2,3-dihydro-isoindol-1-one]	1 to 100	501 to 1000
CN(C)Cc1cc(Nc2ncc(-c3cn[nH]c3)n3ccnc23)ccc1N1CCOCC1 [Compound 218, (3-Dimethylaminomethyl-4-morpholin-4-yl-phenyl)-[5-(1H-pyrazol-4-yl)-imidazo[1,2-a]pyrazin-8-yl]-amine]	> 1000	> 1000
